Measurements reported in ChEMBL document CHEMBL1159170 (Bioorg Med Chem Lett, 1995).
The source made the active and inactive calls. No cut-off for these calls is given here.

Tests used:
[1] = molecular target: D(1A) dopamine receptor (Rattus norvegicus, UniProt P18901); assay: Binding affinity against Dopamine receptor D1 in rat striatal membranes using [3H]SCH-23390; type: cell membranes, Striatum, Membrane
[2] = test system: Canis familiaris; assay: Blockade of dog femoral artery dilation by the D-2 antagonist domperidone was measured after intravenous administration of […]; type: functional, Canis lupus familiaris
[3] = test system: Canis familiaris; assay: Blockade of dog renal artery dilation by the […] was measured after intravenous administration of 0.05-0.1 mg/kg; type: functional, Canis lupus familiaris
[4] = test system: Canis familiaris; assay: Ability to induce dilation of dog renal artery when administered intravenously; Values is potency versus DPDA; type: functional, Canis lupus familiaris
[5] = molecular target: D(2) dopamine receptor (Rattus norvegicus, UniProt P61169); assay: Binding affinity against Dopamine receptor D2 in rat striatal membranes using [3H]spiperone; type: cell membranes, Striatum, Membrane
D(2) dopamine receptor, sequence (P61169 whole entry): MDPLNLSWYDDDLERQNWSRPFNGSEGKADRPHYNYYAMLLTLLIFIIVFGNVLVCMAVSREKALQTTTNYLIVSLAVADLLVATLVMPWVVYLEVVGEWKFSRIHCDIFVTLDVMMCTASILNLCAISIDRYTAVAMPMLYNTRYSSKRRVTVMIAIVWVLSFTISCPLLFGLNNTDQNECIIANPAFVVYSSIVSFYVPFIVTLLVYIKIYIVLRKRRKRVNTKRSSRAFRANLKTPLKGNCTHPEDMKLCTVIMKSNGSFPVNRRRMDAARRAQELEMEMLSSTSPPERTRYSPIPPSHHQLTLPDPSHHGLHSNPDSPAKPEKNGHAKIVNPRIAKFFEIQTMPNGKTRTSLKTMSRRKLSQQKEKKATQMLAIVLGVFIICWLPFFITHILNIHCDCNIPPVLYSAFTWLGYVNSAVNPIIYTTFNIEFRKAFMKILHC

[6] = molecular target: Beta-2 adrenergic receptor (Homo sapiens) (UniProt P07550); assay: Compound was tested for its binding affinity against beta-2 adrenoceptor; IA is Inactive
Beta-2 adrenergic receptor (Homo sapiens), sequence (P07550 whole entry, looked up): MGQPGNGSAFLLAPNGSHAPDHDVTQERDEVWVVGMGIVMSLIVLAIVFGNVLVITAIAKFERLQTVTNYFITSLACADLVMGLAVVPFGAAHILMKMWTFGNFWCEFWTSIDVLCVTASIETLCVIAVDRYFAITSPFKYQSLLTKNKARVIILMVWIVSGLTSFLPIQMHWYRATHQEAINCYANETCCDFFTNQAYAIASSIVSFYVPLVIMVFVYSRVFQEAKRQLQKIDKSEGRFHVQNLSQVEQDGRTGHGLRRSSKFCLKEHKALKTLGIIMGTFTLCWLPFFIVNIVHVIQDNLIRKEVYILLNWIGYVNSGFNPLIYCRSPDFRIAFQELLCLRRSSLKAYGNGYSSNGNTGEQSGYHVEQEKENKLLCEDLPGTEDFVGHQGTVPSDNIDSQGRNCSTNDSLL

[7] = molecular target: Beta-1 adrenergic receptor (Homo sapiens) (UniProt P08588); assay: Compound was tested for its binding affinity against Beta-1 adrenergic receptor; IA is Inactive
Beta-1 adrenergic receptor (Homo sapiens), sequence (P08588 whole entry, looked up): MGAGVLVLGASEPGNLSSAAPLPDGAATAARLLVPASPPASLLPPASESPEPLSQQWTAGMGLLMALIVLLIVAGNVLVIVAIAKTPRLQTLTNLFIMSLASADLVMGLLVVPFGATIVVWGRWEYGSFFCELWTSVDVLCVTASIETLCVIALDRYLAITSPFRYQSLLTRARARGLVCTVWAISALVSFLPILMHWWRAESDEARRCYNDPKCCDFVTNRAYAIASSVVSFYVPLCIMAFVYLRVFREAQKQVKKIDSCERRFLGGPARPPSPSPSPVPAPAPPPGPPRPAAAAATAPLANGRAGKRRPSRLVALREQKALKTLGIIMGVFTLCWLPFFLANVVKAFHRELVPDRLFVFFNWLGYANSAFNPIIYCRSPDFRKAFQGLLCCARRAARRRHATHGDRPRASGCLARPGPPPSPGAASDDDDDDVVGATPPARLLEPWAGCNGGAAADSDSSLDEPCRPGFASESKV

[8] = molecular target: T1, Adrenergic receptor alpha-1 (Homo sapiens, UniProt P35348+P25100+P35368); assay: Compound was tested for its binding affinity against Alpha-1 adrenergic receptor; type: protein assay
T1 sequence (P35348 whole entry): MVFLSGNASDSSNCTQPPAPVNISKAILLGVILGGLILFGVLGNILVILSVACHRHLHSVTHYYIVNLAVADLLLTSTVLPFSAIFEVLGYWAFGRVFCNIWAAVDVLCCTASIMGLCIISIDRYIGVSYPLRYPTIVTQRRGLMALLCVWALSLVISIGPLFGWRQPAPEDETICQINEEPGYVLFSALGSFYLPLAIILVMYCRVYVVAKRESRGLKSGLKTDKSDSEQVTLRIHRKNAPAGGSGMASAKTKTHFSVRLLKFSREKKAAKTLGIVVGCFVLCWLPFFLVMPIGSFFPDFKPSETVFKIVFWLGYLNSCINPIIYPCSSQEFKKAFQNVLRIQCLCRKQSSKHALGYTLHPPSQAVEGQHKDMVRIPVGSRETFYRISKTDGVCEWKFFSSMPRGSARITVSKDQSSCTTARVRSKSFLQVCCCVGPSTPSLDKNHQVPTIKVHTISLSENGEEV
T1 sequence (P25100 whole entry): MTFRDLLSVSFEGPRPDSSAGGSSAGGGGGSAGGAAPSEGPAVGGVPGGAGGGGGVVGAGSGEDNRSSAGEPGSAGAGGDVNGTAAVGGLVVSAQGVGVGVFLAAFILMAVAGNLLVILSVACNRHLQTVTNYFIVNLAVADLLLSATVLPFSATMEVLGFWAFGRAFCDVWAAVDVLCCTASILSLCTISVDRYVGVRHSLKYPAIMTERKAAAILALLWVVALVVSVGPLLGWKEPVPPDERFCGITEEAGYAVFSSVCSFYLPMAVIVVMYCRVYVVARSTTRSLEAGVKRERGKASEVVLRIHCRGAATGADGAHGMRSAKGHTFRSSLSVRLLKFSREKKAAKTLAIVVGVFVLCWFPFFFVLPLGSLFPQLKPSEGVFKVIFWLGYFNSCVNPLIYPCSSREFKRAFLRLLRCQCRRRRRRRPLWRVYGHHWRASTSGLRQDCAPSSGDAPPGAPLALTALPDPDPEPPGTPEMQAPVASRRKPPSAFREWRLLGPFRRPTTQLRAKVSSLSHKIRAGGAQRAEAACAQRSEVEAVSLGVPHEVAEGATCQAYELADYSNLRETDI
T1 sequence (P35368 whole entry): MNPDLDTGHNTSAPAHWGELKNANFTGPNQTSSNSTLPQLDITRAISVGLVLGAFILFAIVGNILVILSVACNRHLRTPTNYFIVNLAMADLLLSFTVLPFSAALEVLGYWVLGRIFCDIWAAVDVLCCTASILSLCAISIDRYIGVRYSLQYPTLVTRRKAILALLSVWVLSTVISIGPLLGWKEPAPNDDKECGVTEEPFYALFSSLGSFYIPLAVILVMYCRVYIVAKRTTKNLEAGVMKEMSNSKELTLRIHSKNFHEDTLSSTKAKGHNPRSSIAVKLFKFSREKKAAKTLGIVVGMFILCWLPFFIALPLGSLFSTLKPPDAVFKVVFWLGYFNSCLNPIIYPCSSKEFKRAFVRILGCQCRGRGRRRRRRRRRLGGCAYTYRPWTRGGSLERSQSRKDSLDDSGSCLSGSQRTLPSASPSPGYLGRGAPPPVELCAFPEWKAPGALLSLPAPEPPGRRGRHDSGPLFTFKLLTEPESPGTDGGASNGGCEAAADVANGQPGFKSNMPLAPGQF

[9] = test system: Canis familiaris; assay: Ability to induce dilation of dog femoral artery when administered intravenously; Values is potency versus DPDA; type: functional, Canis lupus familiaris
[10] = test system: Rattus norvegicus; assay: Compound was tested for mean blood pressure effect in conscious spontaneously hypertensive rats after peroral administration of 30 mg/kg; type: functional; conditions: route oral
[11] = test system: Rattus norvegicus; assay: Compound was tested for urine flow in conscious spontaneously hypertensive rats after peroral administration of 30 mg/kg; type: functional; conditions: route oral

D(1A) dopamine receptor, sequence (P18901 whole entry): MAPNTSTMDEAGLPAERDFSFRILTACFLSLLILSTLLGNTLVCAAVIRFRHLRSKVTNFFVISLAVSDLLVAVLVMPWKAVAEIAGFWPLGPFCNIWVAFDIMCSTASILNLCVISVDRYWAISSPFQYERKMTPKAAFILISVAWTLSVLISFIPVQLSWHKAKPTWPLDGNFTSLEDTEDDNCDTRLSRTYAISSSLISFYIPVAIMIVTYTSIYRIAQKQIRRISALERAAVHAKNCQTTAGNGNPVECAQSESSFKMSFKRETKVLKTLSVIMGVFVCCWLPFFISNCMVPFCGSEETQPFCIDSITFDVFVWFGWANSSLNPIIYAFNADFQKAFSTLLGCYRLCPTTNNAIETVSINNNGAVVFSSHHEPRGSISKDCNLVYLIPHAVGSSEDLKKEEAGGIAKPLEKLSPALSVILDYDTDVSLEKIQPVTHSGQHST

| SMILES | Ki [1] | Ki [5] | Log Ki [6] | Log Ki [7] | Log Ki [8] | Blockade [2] | Blockade [3] | Change in blood flow [4] | Change in blood flow [9] | Decrease in blood pressure [10] | Cumulative urine volume [11] |
| --- | --- | --- | --- | --- | --- | --- | --- | --- | --- | --- | --- |
| CCCCN1CCCC1Cc1ccc(O)c(O)c1 (stereo not given) | 0.00794 µM | 0.00316 µM |  |  |  |  |  |  |  |  |  |
| Oc1ccc(C2CNCCc3c2cc(O)c(O)c3Cl)cc1 (stereo not given) [FENOLDOPAM] |  |  |  |  |  | 20% | 100% | 8 | 0.2 |  |  |
| NCCc1ccc(O)c(O)c1 [DOPAMINE] |  |  |  |  |  |  | 100% | 1 |  | 9.4 | 4 |
| CCCN(CCC)CCc1ccc(O)c(O)c1 | 4.68 µM | 0.0224 µM |  |  | -5.7 | 80% |  |  | 1 |  |  |

Now from value to compound, other results behind:

| Ki [1] | Ki [5] | Log Ki [6] | Log Ki [7] | Log Ki [8] | SMILES | Blockade [2] | Blockade [3] | Change in blood flow [4] | Change in blood flow [9] | Decrease in blood pressure [10] | Cumulative urine volume [11] |
| --- | --- | --- | --- | --- | --- | --- | --- | --- | --- | --- | --- |
| 0.617 µM | 0.0148 µM | inactive | inactive | -6.41 | Oc1ccc(C[C@@H]2CCCN2CCCCCCN2CCC[C@H]2Cc2ccc(O)c(O)c2)cc1O | 0% | 100% | 1.2 | 0.3 |  |  |
| 0.00646 µM | 0.00617 µM | inactive | inactive | -7.25 | Oc1ccc(C[C@H]2CCCN2CCCCCCN2CCC[C@@H]2Cc2ccc(O)c(O)c2)cc1O | 70% | 100% | 1.2 | 359 | 22.4 | 17 |
| 0.575 µM | 0.00891 µM | inactive | inactive | -6.24 | Oc1ccc(C[C@H]2CCCN2CCCCCCN2CCC[C@H]2Cc2ccc(O)c(O)c2)cc1O | 20% | 100% | 9.4 | 80 |  |  |
| 0.0186 µM | 0.00324 µM | inactive | inactive | -6.41 | CCCN(CCCCCCN1CCC[C@@H]1Cc1ccc(O)c(O)c1)CCc1ccc(O)c(O)c1 | 70% | 100% | 6 | 382 | 18.6 | 24 |
